The source of these data is ChEMBL document CHEMBL1201862, “PubChem BioAssay data set” (2004).

Calls of active or inactive are those of the source.

The subject of one experiment is Candida albicans. As to the kind of experiment: Candida growth effect without fluconazole – C. albicans CaCi-2, dry powder, counter-screen for antifungal drug resistance project, dose response (AID 488802). It is filed as functional, organism-based. In general terms: Counterscreens check selectivity or assay interference.
A further experiment deals with NIH3T3. In words: mammalian cell viability counter-check – Alamar Blue, fluconazole, dry powder, cytotoxicity control for antifungal drug resistance project, dose response (AID 488809). Particulars: Mus musculus. It is filed as functional, cell-based. (In general: The colour change of resazurin is a common sign of viable cells or microbes.)
Experiment [1] addresses T1, Caspase-3 (Homo sapiens, UniProt P42574).
T1 sequence (P42574 whole entry): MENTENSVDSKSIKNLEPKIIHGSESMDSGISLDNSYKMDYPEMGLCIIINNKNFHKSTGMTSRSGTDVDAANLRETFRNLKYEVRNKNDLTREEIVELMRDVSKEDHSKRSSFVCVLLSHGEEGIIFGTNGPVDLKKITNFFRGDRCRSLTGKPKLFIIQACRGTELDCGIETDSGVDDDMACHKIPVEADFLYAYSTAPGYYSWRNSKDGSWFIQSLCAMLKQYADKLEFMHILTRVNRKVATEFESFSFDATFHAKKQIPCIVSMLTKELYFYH
As to the kind of experiment: inhibition of recombinant caspase-3 activity – biochemical, luminescence, set 2, selectivity assay for SENP protease inhibitor project, SAR follow-up (AID 588599). It is filed as functional.

Experiment [2] addresses T2, Sentrin-specific protease 6 (Homo sapiens, UniProt Q9GZR1).
T2 sequence (Q9GZR1 whole entry): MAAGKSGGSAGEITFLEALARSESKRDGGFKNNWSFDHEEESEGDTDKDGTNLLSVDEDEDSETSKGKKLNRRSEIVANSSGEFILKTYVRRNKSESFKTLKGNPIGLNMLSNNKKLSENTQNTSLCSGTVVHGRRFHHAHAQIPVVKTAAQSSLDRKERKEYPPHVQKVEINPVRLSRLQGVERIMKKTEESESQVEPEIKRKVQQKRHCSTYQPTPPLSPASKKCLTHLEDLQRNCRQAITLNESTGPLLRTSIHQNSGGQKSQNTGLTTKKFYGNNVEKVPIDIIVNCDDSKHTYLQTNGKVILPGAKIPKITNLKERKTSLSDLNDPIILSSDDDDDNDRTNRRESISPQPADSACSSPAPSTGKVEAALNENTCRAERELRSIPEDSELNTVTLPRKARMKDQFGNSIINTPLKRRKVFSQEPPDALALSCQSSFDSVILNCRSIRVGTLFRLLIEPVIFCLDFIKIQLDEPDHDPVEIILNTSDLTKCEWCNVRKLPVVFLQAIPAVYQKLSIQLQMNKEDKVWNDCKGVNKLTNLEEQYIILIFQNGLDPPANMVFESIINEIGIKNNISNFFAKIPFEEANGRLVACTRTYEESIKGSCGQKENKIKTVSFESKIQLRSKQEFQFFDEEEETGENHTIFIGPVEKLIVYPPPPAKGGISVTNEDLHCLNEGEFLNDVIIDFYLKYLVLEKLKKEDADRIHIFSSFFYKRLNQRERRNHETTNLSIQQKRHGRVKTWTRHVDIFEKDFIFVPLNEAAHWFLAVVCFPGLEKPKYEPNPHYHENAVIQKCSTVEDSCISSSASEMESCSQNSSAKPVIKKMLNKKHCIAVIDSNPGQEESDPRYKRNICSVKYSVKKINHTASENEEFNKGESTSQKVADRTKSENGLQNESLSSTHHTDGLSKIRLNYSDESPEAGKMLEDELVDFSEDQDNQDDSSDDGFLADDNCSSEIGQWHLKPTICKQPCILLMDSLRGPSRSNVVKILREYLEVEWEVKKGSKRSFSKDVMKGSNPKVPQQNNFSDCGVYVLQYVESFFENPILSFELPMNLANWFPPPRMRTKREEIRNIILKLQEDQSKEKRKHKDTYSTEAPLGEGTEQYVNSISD
As to the kind of experiment: SAR Analysis of small molecule inhibitors of Sentrin-specific protease 6 (SENP6) using a Luminescent assay. [Related pubchem assays (depositor defined):AID2582, AID2599]. The class given is functional.

In experiment [3] the target is T3, Sentrin-specific protease 7 (Homo sapiens, UniProt Q9BQF6).
T3 sequence (Q9BQF6 whole entry): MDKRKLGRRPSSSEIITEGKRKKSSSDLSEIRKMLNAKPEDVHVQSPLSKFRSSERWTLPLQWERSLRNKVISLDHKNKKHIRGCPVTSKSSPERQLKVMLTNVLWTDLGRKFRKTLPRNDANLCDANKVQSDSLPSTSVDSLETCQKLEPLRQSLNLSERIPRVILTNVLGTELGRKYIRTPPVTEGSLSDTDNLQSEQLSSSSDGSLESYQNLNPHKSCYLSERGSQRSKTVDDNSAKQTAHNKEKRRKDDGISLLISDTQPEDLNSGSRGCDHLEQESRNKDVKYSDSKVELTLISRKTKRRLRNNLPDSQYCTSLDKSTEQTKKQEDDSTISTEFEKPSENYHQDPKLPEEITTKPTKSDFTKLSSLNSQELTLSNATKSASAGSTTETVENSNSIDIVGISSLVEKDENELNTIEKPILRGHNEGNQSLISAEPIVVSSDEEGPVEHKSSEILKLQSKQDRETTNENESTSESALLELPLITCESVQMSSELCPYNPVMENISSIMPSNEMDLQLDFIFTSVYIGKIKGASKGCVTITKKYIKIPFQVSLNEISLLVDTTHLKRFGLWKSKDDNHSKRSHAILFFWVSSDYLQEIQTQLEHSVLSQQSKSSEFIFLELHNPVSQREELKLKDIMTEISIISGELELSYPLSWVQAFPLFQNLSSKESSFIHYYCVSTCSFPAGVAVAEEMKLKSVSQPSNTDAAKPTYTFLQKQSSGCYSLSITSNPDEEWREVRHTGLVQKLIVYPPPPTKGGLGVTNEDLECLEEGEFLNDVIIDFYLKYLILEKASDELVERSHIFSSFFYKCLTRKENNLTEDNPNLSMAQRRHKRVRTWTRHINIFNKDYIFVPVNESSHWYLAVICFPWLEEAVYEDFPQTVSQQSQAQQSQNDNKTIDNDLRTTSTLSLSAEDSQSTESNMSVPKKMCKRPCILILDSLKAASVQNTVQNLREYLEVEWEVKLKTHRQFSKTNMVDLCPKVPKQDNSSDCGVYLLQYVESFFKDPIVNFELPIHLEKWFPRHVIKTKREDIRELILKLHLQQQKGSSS
In words: inhibition of human SENP7 cleavage activity – biochemical, luminescence, SAR follow-up (AID 504497). The class given is functional.

Experiment [4] concerns the target T4, Sentrin-specific protease 8 (Homo sapiens, UniProt Q96LD8).
T4 sequence (Q96LD8 whole entry): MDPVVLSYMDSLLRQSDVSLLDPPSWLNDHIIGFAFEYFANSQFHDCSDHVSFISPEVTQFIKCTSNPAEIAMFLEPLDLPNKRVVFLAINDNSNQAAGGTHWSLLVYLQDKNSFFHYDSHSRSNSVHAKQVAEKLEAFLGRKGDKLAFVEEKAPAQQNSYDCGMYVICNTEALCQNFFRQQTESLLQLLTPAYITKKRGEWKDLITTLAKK
In words: inhibition of human SENP8 cleavage activity – biochemical, luminescence, SAR follow-up (AID 504501). The class given is functional.

In another experiment the target is T5, Protein skinhead-1 (Caenorhabditis elegans, UniProt P34707).
T5 sequence (P34707 whole entry): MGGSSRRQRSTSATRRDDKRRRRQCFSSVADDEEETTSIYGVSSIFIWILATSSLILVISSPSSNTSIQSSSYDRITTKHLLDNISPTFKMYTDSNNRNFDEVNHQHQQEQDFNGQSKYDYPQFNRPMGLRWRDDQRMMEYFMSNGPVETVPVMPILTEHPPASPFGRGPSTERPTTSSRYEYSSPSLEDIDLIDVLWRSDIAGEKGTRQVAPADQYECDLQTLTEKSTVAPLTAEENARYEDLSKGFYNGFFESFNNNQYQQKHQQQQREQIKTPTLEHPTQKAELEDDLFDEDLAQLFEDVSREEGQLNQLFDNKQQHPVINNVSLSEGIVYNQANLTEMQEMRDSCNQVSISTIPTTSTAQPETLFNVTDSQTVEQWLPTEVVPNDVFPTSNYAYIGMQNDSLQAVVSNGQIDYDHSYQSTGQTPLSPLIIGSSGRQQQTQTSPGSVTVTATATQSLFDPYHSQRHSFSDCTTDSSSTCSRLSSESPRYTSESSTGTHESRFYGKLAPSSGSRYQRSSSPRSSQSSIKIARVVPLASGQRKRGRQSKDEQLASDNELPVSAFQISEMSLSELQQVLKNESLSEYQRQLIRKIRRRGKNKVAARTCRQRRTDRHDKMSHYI
The class given is functional.

Experiment [5] has as its target T1, Caspase-3. As to the kind of experiment: SAR Analysis of small molecule inhibitors of Sentrin-specific proteases (SENPs) using a Caspase-3 Selectivity assay. [Related pubchem assays (depositor defined):AID2540, AID2599, AID434973, AID489001]. It is filed as functional.
The target in experiment [6] is T4, Sentrin-specific protease 8. As to the kind of experiment: inhibition of sentrin protease 8 – biochemical, luminescence, set 2, SAR follow-up (AID 588601). The class given is functional.
Experiment [7] concerns the target T3, Sentrin-specific protease 7. As to the kind of experiment: inhibition of human SENP7 cleavage activity – biochemical, luminescence, set 2, SAR follow-up (AID 588600). The class given is functional.
The target of experiment [8] is T2, Sentrin-specific protease 6. In words: inhibition of human SENP6 catalytic domain – biochemical, luminescence, set 2, SAR follow-up (AID 588598). The class given is functional.
Another experiment has as its target Cytochrome P450 2D6 (Homo sapiens, UniProt P10635).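 Further: CYP2D6 member of a cytochrome P450 panel assay.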
The target of a further experiment is CAAX prenyl protease 2 (Saccharomyces cerevisiae S288c, UniProt Q03530). As to the kind of experiment: inhibition of Rce1p peptide cleavage – biochemical, plate reader, dry powder retest, dose response (AID 588851).
Experiment [9] addresses T6, Orexin/Hypocretin receptor type 1 (Homo sapiens, UniProt O43613). In words: Homogeneous Time Resolved Fluorescence (HTRF)-based cell-based high throughput dose response assay for antagonists of the orexin 1 receptor (OX1R; HCRTR1). [Related pubchem assays (depositor defined):AID434989, AID435008, AID463079, AID485270, AID492963, AID492964, AID492965, AID493232, AID504717, AID504718]. The class given is functional.

Another experiment has as its system CHO-K1. In words: Counterscreen for antagonists of the orexin 1 receptor (OX1R; HCRTR1): Homogeneous time resolved fluorescence (HTRF)-based cell-based dose response assay to identify antagonists of the parental CHO-K1 cell line. [Related pubchem assays (depositor defined):AID434989, AID435008, AID463079, AID485270, AID492963, AID492964, AID492965, AID493232, AID504699, AID504701]. The conditions noted are these: Cricetulus griseus. The class given is functional.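 Further: potency for inhibition of ATP-stimulated IP1 production as antagonists.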

Experiment [10] is described as follows: Counterscreen for antagonists of the orexin 1 receptor (OX1R; HCRTR1): Fluorescence-based cell-based high throughput dose response assay to identify antagonists of the parental CHO cell line. [Related pubchem assays (depositor defined):AID434989, AID435008, AID463079, AID485270, AID492963, AID492964, AID492965, AID493232, AID504699, AID504701]. The class given is functional.

Experiment [11] addresses T7, Orexin receptor type 2 (Homo sapiens, UniProt O43614). As to the kind of experiment: Counterscreen assay for antagonists of the orexin 1 receptor (OX1R; HCRTR1): Homogeneous Time Resolved Fluorescence (HTRF)-based cell-based dose response assay for antagonists of the orexin 2 receptor (OX2R; HCRTR2), run by assay provider. It is filed as functional.
Experiment [12] concerns the target T6, Orexin/Hypocretin receptor type 1. In words: Fluorescence-based cell-based high throughput dose response assay for antagonists of the orexin 1 receptor (OX1R; HCRTR1). [Related pubchem assays (depositor defined):AID434989, AID435008, AID463079, AID485270, AID492963, AID492964, AID492965, AID493232, AID504717, AID504718]. It is filed as functional.
In experiment [13] the target is T7, Orexin receptor type 2. As to the kind of experiment: Counterscreen assay for antagonists of the orexin 1 receptor (OX1R; HCRTR1): Fluorescence-based cell-based dose response assay for antagonists of the orexin 2 receptor (OX2R; HCRTR2), run by assay provider. It is filed as functional.

T7 sequence (O43614 whole entry): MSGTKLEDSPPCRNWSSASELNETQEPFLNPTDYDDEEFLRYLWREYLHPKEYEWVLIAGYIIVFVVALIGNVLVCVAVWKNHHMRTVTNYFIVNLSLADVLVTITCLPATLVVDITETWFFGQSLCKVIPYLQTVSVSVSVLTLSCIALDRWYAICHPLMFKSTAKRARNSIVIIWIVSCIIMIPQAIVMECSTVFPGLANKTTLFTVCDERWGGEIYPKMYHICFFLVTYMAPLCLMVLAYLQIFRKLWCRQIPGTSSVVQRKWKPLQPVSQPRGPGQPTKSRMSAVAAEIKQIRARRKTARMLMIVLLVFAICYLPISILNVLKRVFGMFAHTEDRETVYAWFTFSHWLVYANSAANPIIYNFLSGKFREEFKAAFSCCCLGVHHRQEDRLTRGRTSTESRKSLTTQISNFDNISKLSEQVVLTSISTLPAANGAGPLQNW
T6 sequence (O43613 whole entry): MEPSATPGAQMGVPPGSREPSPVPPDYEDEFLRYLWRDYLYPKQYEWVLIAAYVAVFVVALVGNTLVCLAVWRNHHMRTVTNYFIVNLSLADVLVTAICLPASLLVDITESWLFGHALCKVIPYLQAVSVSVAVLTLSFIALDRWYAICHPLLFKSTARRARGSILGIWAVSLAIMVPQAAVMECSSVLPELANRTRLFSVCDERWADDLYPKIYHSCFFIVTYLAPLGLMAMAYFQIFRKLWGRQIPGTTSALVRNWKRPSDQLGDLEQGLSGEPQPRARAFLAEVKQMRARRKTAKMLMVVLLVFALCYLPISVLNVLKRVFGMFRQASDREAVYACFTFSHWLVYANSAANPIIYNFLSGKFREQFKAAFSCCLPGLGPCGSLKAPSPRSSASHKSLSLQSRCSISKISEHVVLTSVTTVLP
Chain of CAAX prenyl protease 2 (Q03530 whole entry): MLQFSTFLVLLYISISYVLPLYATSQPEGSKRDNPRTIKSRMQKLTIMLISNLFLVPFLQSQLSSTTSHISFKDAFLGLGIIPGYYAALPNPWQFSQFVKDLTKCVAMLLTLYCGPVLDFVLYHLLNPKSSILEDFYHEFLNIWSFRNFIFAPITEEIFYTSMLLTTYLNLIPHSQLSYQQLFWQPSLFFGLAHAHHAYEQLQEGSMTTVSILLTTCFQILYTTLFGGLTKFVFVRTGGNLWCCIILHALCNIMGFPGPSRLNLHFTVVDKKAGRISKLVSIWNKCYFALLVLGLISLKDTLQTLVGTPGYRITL
Chain of Cytochrome P450 2D6 (P10635 whole entry): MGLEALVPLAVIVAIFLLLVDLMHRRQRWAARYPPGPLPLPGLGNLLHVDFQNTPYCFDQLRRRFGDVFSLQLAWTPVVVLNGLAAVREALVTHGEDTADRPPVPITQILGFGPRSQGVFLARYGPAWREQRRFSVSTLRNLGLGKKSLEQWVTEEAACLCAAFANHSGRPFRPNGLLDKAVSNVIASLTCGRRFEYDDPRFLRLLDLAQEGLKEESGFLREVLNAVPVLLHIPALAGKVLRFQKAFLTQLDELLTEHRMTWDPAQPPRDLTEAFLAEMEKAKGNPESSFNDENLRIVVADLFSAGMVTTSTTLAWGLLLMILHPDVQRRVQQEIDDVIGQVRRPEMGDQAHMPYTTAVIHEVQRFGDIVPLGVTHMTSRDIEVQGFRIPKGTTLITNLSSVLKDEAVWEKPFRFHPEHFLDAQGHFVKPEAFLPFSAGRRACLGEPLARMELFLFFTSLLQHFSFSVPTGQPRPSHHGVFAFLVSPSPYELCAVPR

Turning to `CC1CCN(C(=O)Cn2c3ccccc3c3nc4n(c(=O)c32)CCCS4)CC1`, the concentration at half-maximal activity (AC50) (commonly the midpoint of the concentration-response curve, whichever way the signal moves) is 122 µM (active) with Candida albicans and > 260 µM (inactive) in the experiment on NIH3T3.
For `C(=C\c1nc(-c2cccnc2)no1)/c1ccccc1`, the concentration for half-maximal inhibition (IC50) (usually the concentration at which inhibition is half-maximal) on Caspase-3 [1] was 9.23 µM (active); in [2], 21 µM (active); in [3], 5.3 µM (active); in experiment [4], 23 µM (active); at Protein skinhead-1 it was 49 µM (active); at Caspase-3 [5], 6.2 µM (active). Further, the IC50 in experiment [6] was 9.69 µM (active); in experiment [7] it was 8.26 µM (active); in [8], 8.23 µM (active).
Regarding `Cc1ccc(NC(=O)CCc2ccc(S(=O)(=O)NC3CCCCC3)cc2)cc1`, the results for the AC50 at Cytochrome P450 2D6 and at CAAX prenyl protease 2 were 11.2 µM (inconclusive) and 11 µM (active), respectively.
Take `Cc1nn(C)c(C)c1/N=C/c1c(O)ccc2ccccc12`: the IC50 in experiment [9] was 3.76 µM (active); with CHO-K1 it was > 66.2 µM (inactive); in [10] it was > 49.8 µM (inactive); at Orexin receptor type 2 [11] it was > 50 µM (inactive); in experiment [12], 31.2 µM (inactive); on Orexin receptor type 2 [13], > 88.8 µM (inactive).
